Experimental data published in ChEMBL document CHEMBL5154881, “Discovery of First-in-Class TAK1-MKK3 Protein-Protein Interaction (PPI) Inhibitor (R)-STU104 for the Treatment of Ulcerative Colitis through Modulating TNF-α Production” (J Med Chem, 2022).

Columns and labels:
[1] = test system: Mus musculus; test: Anti-ulcerative colitis activity in DSS-induced C57BL/6 mouse ulcerative colitis model assessed as histopathological score recovery ratio at 3 mg/kg, IG via gavage measured after 7 days by H and E staining method relative to control; assay type: functional; settings: time 7 day
[2] = test system: Mus musculus; test: Antiinflammatory activity against IL-10-/- C57BL/6 mouse model of acute ulcerative colitis assessed as decrease in serum IL-1beta levels administered intragastrically via gavage measured after 8 weeks by ELISA; assay type: functional, organism-based; settings: dose 3-10 mg/kg, route ig, DDE = dose-dependent effect
[3] = test system: Mus musculus; test: Antiinflammatory activity against IL-10-/- C57BL/6 mouse model of ulcerative colitis assessed as inhibition ratio of IL-23 protein expression at 10 mg/kg, IG via gavage and measured after 8 weeks by ELISA relative to control; assay type: functional; parameters: scale not given: the % may be the effect or the level left
[4] = test system: Mus musculus; test: Anti-ulcerative colitis activity in DSS-induced C57BL/6 mouse ulcerative colitis model assessed as histopathological score recovery ratio at 1 mg/kg, IG via gavage measured after 7 days by H and E staining method relative to control; assay type: functional; settings: time 7 day
[5] = Toxicity in C57 mouse assessed as lung damage at 50 to 500 mg/kg, po administered daily for 14 days; assay type: organism-based; settings: in vivo, 336 h, dose 50-500 mg/kg, time 14 day
[6] = test system: Mus musculus; test: Anti-ulcerative colitis activity in IL-10-/- C57BL/6 mouse model of ulcerative colitis assessed as body weight recovery ratio at 3 mg/kg, IG via gavage for 8 weeks and measured everyday relative to control; assay type: functional
[7] = test system: Mus musculus; test: Antiinflammatory activity against IL-10-/- C57BL/6 mouse model of ulcerative colitis assessed as inhibition ratio of TNF-alpha protein expression at 10 mg/kg, IG via gavage and measured after 8 weeks by ELISA relative to control; assay type: functional; parameters: scale not given: the % may be the effect or the level left
[8] = Metabolic stability in dog liver microsomes assessed as intrinsic clearance at […] measured upto 60 mins in presence of NADPH by HPLC-MS analysis; assay type: ADME, Canis lupus familiaris, Microsome; parameters: dose or concentration left out as unconfirmed; settings: 1 h
[9] = test system: Mus musculus; test: Antiinflammatory activity against DSS-induced C57BL/6 mouse model of acute ulcerative colitis assessed as inhibition ratio of IL-1beta mRNA expression in colon tissue at 3 mg/kg, IG via gavage measured after 7 days by RT-qPCR analysis relative to control; assay type: functional; parameters: scale not given: the % may be the effect or the level left; settings: time 7 day
[10] = test system: Mus musculus; test: Antiinflammatory activity against IL-10-/- C57BL/6 mouse model of acute ulcerative colitis assessed as decrease in serum IL-23 levels administered intragastrically via gavage measured after 8 weeks by ELISA; assay type: functional, organism-based; settings: dose 3-10 mg/kg, route ig, DDE = dose-dependent effect
[11] = Half life in 12 hr starved C57 mouse at 30 mg/kg, po measured for 0.083 to 24 hrs post-dose by LC-MS-MS analysis; assay type: ADME, organism-based; settings: in vivo, time 0.083-24 hrs
[12] = test system: RAW264.7; test: Inhibition of MKK3-p38-elF4E signaling pathway in mouse RAW264.7 cells assessed as reduction in LPS-induced Mnk1 phosphorylation treated for 1.5 hrs followed by LPS treatment for 1 hr by Western blot analysis; assay type: cell-based; settings: dose 3.125-12.5 µmol/L, time 2.5 hrs, DDE = dose-dependent effect
[13] = Toxicity in C57 mouse assessed as maximum tolerated dose administered orally daily for 14 days; settings: in vivo, route po, time 14 day
[14] = test system: Mus musculus; test: Anti-ulcerative colitis activity in DSS-induced C57BL/6 mouse ulcerative colitis model assessed as histopathological score recovery ratio at 10 mg/kg, IG via gavage measured after 7 days by H and E staining method relative to control; assay type: functional; settings: time 7 day
[15] = test system: Mus musculus; test: Antiinflammatory activity against DSS-induced C57BL/6 mouse model of acute ulcerative colitis assessed as reduction in serum IL-6 levels administered intragastrically via gavage measured after 7 days by ELISA; assay type: functional, organism-based; settings: dose 1-10 mg/kg, route ig, time 7.0 day, DDE = dose-dependent effect
[16] = Cmax in 12 hr starved C57 mouse at 30 mg/kg, po measured for 0.083 to 24 hrs post-dose by LC-MS-MS analysis; assay type: ADME, organism-based; parameters: dose 30 mg/kg, time 0.083-24 hrs, route po; settings: in vivo
[17] = test system: Mus musculus; test: Antiinflammatory activity against DSS-induced C57BL/6 mouse model of acute ulcerative colitis assessed as inhibition ratio of IL-23 protein expression at 10 mg/kg, IG via gavage measured after 7 days by ELISA relative to control; assay type: functional; parameters: scale not given: the % may be the effect or the level left; settings: time 7 day
[18] = test system: Mus musculus; test: Antiinflammatory activity against DSS-induced C57BL/6 mouse model of acute ulcerative colitis assessed as reduction in serum IL-1beta levels administered intragastrically via gavage measured after 7 days by ELISA; assay type: functional, organism-based; settings: dose 1-10 mg/kg, route ig, time 7.0 day, DDE = dose-dependent effect
[19] = test system: Mus musculus; test: Antiinflammatory activity against IL-10-/- C57BL/6 mouse model of ulcerative colitis assessed as inhibition ratio of IL-6 protein expression at 10 mg/kg, IG via gavage and measured after 8 weeks by ELISA relative to control; assay type: functional; parameters: scale not given: the % may be the effect or the level left
[20] = Apparent volume of distribution in 12 hr starved C57 mouse at 5 mg/kg, iv measured for 0.083 to 24 hrs post-dose by LC-MS-MS analysis; assay type: ADME, organism-based; settings: in vivo, time 0.083-24 hrs, read-out: Vz
[21] = test system: Mus musculus; test: Antiinflammatory activity against IL-10-/- C57BL/6 mouse model of ulcerative colitis assessed as inhibition ratio of IL-1beta mRNA expression in colon tissue at 3 mg/kg, IG via gavage and measured after 8 weeks by RT-qPCR analysis relative to control; assay type: functional; parameters: scale not given: the % may be the effect or the level left
[22] = test system: Mus musculus; test: Antiinflammatory activity against DSS-induced C57BL/6 mouse model of acute ulcerative colitis assessed as inhibition ratio of IL-1beta mRNA expression in colon tissue at 1 mg/kg, IG via gavage measured after 7 days by RT-qPCR analysis relative to control; assay type: functional; parameters: scale not given: the % may be the effect or the level left; settings: time 7 day
[23] = test system: Mus musculus; test: Antiinflammatory activity against IL-10-/- C57BL/6 mouse model of ulcerative colitis assessed as inhibition ratio of TNF-alpha mRNA expression in colon tissue at 1 mg/kg, IG via gavage and measured after 8 weeks by RT-qPCR analysis relative to control; assay type: functional; parameters: scale not given: the % may be the effect or the level left
[24] = test system: Mus musculus; test: Antiinflammatory activity against DSS-induced C57BL/6 mouse model of acute ulcerative colitis assessed as inhibition of IL-1beta mRNA expression in colon tissue administered intragastrically via gavage measured after 7 days by RT-qPCR analysis; assay type: functional, organism-based; settings: route ig, time 7.0 day, DDE = dose-dependent effect
[25] = Apparent volume of distribution in 12 hr starved C57 mouse at 30 mg/kg, po measured for 0.083 to 24 hrs post-dose by LC-MS-MS analysis; assay type: ADME, organism-based; settings: in vivo, time 0.083-24 hrs
[26] = test system: P-gp (human); test: Efflux ratio of apparent permeability in dog MDCK-MDR1 cells transfected with human P-gp; assay type: ADME, cell-based, Canis lupus familiaris
[27] = test system: Mus musculus; test: Antiinflammatory activity against IL-10-/- C57BL/6 mouse model of acute ulcerative colitis assessed as decrease in serum TNF-alpha levels administered intragastrically via gavage measured after 8 weeks by ELISA; assay type: functional, organism-based; settings: dose 3-10 mg/kg, route ig, DDE = dose-dependent effect
[28] = test system: Mus musculus; test: Antiinflammatory activity against IL-10-/- C57BL/6 mouse model of ulcerative colitis assessed as inhibition ratio of TNF-alpha protein expression at 3 mg/kg, IG via gavage and measured after 8 weeks by ELISA relative to control; assay type: functional; parameters: scale not given: the % may be the effect or the level left
[29] = test system: Mus musculus; test: Antiinflammatory activity against DSS-induced C57BL/6 mouse model of acute ulcerative colitis assessed as inhibition ratio of TNF-alpha mRNA expression in colon tissue at 3 mg/kg, IG via gavage measured after 7 days by RT-qPCR analysis relative to control; assay type: functional; parameters: scale not given: the % may be the effect or the level left; settings: time 7 day
[30] = AUC (0 to infinity) in 12 hr starved C57 mouse at 30 mg/kg, po measured for 0.083 to 24 hrs post-dose by LC-MS-MS analysis; assay type: ADME, organism-based; parameters: time upper 24 hrs, dose 30 mg/kg, time lower 0.083 hrs, route po; settings: in vivo

COc1ccc([C@H]2CC(=O)c3cc(OC)cc(OC)c32)cc1
Activity [1]: 41.7%
Activity [2]: Dde
Activity [3]: 64.4%
Activity [4]: 25%
Activity [5]: Non-Toxic
Activity [6]: 14.8%
Activity [7]: 61.9%
CLH [8]: 121.4 mL/min/g
Activity [9]: 87.2%
Activity [10]: Dde
half-life [11]: 8.67 h
inhibition [12]: Dde
MTD at 336 h [13]: 500 mg/kg
Activity [14]: 70%
Activity [15]: Dde
Cmax [16]: 2.29 µg/mL
Activity [17]: 52.3%
Activity [18]: Dde
Activity [19]: 57.6%
Vd [20]: 7.76 L/kg
Activity [21]: 36.1%
Activity [22]: 70.1%
Activity [23]: 24.7%
Activity [24]: Dde
Vz [25]: 3.68 L/kg
efflux ratio [26]: 0.33
Activity [27]: Dde
Activity [28]: 60.3%
Activity [29]: 73.2%
AUC [30]: 16.991 µg·h/mL
